ChEMBL document CHEMBL1136349, “Identification of a monoacid-based, cell permeable, selective inhibitor of protein tyrosine phosphatase 1B” (Bioorg Med Chem Lett, 2003)

Assays:
[1] = molecular target: T1, Tyrosine-protein phosphatase non-receptor type 1 (Homo sapiens, UniProt P18031); assay: Inhibition of Protein-tyrosine phosphatase 1B
T1 sequence (P18031 whole entry): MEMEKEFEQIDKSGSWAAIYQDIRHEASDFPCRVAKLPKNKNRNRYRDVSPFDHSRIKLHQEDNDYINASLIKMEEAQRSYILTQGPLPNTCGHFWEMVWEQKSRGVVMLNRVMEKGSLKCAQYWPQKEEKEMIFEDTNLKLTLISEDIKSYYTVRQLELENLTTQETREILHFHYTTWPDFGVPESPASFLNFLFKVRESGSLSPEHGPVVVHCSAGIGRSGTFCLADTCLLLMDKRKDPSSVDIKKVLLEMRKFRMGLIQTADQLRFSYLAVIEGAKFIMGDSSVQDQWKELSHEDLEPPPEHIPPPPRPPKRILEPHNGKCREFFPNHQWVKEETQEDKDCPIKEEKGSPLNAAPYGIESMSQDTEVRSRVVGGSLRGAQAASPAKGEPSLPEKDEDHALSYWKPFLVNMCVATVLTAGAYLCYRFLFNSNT

Caco-2 = assay: Papp in Caco-2 permeability assay.; assay type: functional, cell-based; conditions: Homo sapiens

| Compound | Ki [1] | Papp (Caco-2) |
| --- | --- | --- |
| COC(=O)c1c(O)cccc1OCCCCNC(=O)[C@H](Cc1ccc(OC(CO)C(=O)O)cc1)NC(=O)OC(C)(C)C (stereo not given in full) | > 200 µM |  |
| COC(=O)c1c(O)cccc1OCCCCNC(=O)[C@H](Cc1ccc(NS(=O)(=O)C(F)(F)F)cc1)NC(C)=O | > 200 µM |  |
| COC(=O)c1c(O)cccc1OCCCCNC(=O)[C@H](Cc1ccc(NC(=O)C(F)(F)F)cc1)NC(C)=O | > 200 µM |  |
| COC(=O)c1c(O)cccc1OCCCCNC(=O)[C@H](Cc1ccc(NC(=O)CO)cc1)NC(C)=O | > 200 µM |  |
| COC(=O)c1c(O)cccc1OCCCCNC(=O)[C@H](Cc1ccc(NC(=O)C(=O)O)cc1)NC(C)=O | 6.1 µM |  |
| COC(=O)c1c(O)cccc1OCCCCNC(=O)[C@H](Cc1ccc(/C=C\C(=O)O)cc1)NC(=O)OC(C)(C)C | > 200 µM |  |
| CCc1cc(CC(NC(C)=O)C(=O)NCCCCOc2cccc(O)c2C(=O)OC)ccc1N(C(=O)C(=O)O)c1ccccc1C(=O)O (stereo not given) |  | < 1 ×10⁻⁶ cm/s |
| COC(=O)c1c(O)cccc1OCCCCNC(=O)[C@H](Cc1ccc(OCC(=O)O)c(N)c1)NC(C)=O | > 200 µM |  |
| COC(=O)c1c(O)cccc1OCCCCNC(=O)[C@H](Cc1ccc(NC(=O)C(=O)O)cc1)NC(=O)OC(C)(C)C |  | < 1 ×10⁻⁶ cm/s |
| COC(=O)c1c(O)cccc1OCCCCNC(=O)[C@H](Cc1ccc(NC(=O)c2ncccc2O)cc1)NC(C)=O | > 200 µM |  |
| CCCCC(C)NC(=O)[C@H](Cc1ccc(OCC(=O)O)c(C2N=NN=N2)c1)NC(=O)[C@H](Cc1ccccc1)NC(=O)OC(C)(C)C (stereo not given in full) | 2 µM |  |
| COC(=O)c1c(O)cccc1OCCCCNC(=O)[C@H](Cc1ccc(OCC(=O)O)c(O)c1)NC(C)=O |  | > 10 ×10⁻⁶ cm/s |
| COC(=O)c1c(O)cccc1OCCCCNC(=O)[C@H](Cc1ccc(OCC(=O)O)cc1)NC(=O)OC(C)(C)C |  | 10 ×10⁻⁶ cm/s |
| COC(=O)c1c(O)cccc1OCCCCNC(=O)[C@H](Cc1ccc(OCC(=O)O)c(C(=O)O)c1)NC(C)=O | 2.2 µM |  |
| COC(=O)c1c(O)cccc1OCCCCNC(=O)[C@H](Cc1ccc(NCC(=O)O)cc1)NC(=O)OC(C)(C)C | > 200 µM |  |
